Active and inactive are the calls of the source.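 Rule for the calls: active = maximal percent inhibition of the deubiquitinase OTUD3 of at least 30% across the tested doses; inactive = the rest.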

For this test, the target named is OTU domain-containing protein 3 (Homo sapiens) (UniProt Q5T2D3). The test is described as follows: Validation of screening hits, potency titration, in vitro enzymatic, OTU domain-containing protein 3 DUB inhibitors (AID 1645868). The conditions noted are these: purified OTUD3, ubiquitin-rhodamine cleavage fluorescence, 2 h.
Chain of OTU domain-containing protein 3 (Homo sapiens) (Q5T2D3 whole entry, looked up, the tested form may be a part): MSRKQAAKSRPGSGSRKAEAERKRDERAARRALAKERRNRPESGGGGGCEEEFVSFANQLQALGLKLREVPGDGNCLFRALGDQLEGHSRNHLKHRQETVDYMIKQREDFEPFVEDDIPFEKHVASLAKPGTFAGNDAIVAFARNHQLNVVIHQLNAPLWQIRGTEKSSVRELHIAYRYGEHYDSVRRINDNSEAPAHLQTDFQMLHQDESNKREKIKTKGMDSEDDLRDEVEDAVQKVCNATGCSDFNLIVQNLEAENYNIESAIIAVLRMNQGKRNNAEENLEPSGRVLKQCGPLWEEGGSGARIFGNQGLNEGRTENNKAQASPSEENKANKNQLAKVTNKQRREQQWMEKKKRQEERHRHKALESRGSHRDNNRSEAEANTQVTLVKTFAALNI
Take `CN(Cc1ccccc1)S(=O)(=O)c1ccc(S(=O)(=O)N2CCN(C(=O)c3cccnc3)CC2)cc1`: the IC50 is > 50 µM (inactive).
For the molecule `COc1cc(C(=O)Nc2ccc(-c3csc(C)n3)cc2)cc(OC)c1OC`, the IC50 is > 50 µM (inactive).
For `Cc1ccccc1-c1noc(-c2ccccc2OCC(=O)NC(C)C)n1` the value was > 50 µM (inactive).
For `CCc1nc(N2CCCC2=O)sc1C(=O)Nc1cccc(C(C)=O)c1` the value was > 50 µM (inactive); for `O=C(Nc1cccn(Cc2c(Cl)cccc2Cl)c1=O)c1ccccc1[N+](=O)[O-]`, > 50 µM (inactive); for `COc1cccc(N2CCN(C(=O)CCNS(=O)(=O)c3ccc4c(c3)CCC(=O)N4)CC2)c1`, > 50 µM (inactive).
Next, `COc1ccc(-c2cc(-c3nnc4n3CCCCC4)n(-c3ccccc3)n2)cc1`: > 50 µM (inactive).
With `CCn1c(SCc2cccc(C)c2)nnc1-c1cnccn1`, the IC50 was > 50 µM (inactive).
On to `CCN1C(=O)c2cccnc2Sc2cc(NC(=O)c3ccc(Cl)s3)ccc21`, for which the IC50 is > 50 µM (inactive).
Next, `Cc1c2c(nc3ccccc13)-c1ccccc1CC2`: > 50 µM (inactive); `Cc1cc(NCC2CC2)n2nc(Nc3cc(Cl)ccc3C)nc2n1`: > 50 µM (inactive); `Cc1ccccc1C(=O)OCCN1C(=O)c2cccc3c(N4CCCCC4)ccc(c23)C1=O`: > 50 µM (inactive).
Next, `O=C(c1cc(Cl)ccc1Cl)N1CCN(c2ccc3nnc(-c4ccco4)n3n2)CC1`: > 50 µM (inactive).
Take `O=C(C1CCCN(S(=O)(=O)N2CCCCCC2)C1)N1CCN(c2ccccc2)CC1` (stereo not drawn): the IC50 is > 50 µM (inactive).
Next, `Cc1ccccc1NC(=O)CNc1nc(Nc2ccccc2)nc(Nc2ccccc2)n1`: 21 µM; `COc1ccc(-c2[nH]c3ccccc3c2SCCNC(=O)c2ccc(S(=O)(=O)N3CCOCC3)cc2)cc1`: > 50 µM (inactive); `COC(=O)c1cc(C#N)c(NCc2ccccc2)nc1C`: > 50 µM (inactive).
Next, `COc1cccc(OCCCn2c(C(C)NC(=O)c3ccco3)nc3ccccc32)c1` (stereo not drawn): 32.8 µM; `CCOc1ccccc1-c1nc(-c2nnn(Cc3ccccc3)c2C)no1`: > 50 µM (inactive); `COc1ccc(N(CC(=O)Nc2cccc(F)c2)S(=O)(=O)c2ccc(OC)c(OC)c2)cc1`: 22.4 µM.
For `COc1ccc(NC(=O)C2CC(=O)Nc3c(-c4ccc(Cl)cc4)cnn32)c(OC)c1` (stereo not drawn) the value was 34 µM.
Consider `O=C(Cn1c(=O)n(Cc2ccc3c(c2)OCO3)c(=O)c2ncccc21)c1ccccc1`, for which the IC50 is > 50 µM (inactive).
Next, `Cc1cccc(-n2nc(C)c3c2NC(=O)CC3C(=O)c2cc3ccccc3o2)c1` (stereo not drawn): 32 µM; `O=C(Cc1noc2ccccc12)N1CCN(c2ccc([N+](=O)[O-])cc2)CC1`: > 50 µM (inactive).
For `COc1ccc(-c2nnc(SCc3ccccc3C#N)o2)c(OC)c1` the value was > 50 µM (inactive); for `O=C(O)COc1ccccc1/C=C1\CCc2c1nc1ccccc1c2C(=O)O`, > 50 µM (inactive); for `Cc1nc(-c2ccc(C(=O)NCc3ccc(F)cc3)cc2)cs1`, > 50 µM (inactive).
For `COc1ccc(NC(=O)C2C3C=CC4(O3)C2C(=O)N(CCc2ccccc2)C4C(=O)NC2CCCCC2)cc1` (stereo not drawn) the value was 26.6 µM; for `COc1ccc(CC(=O)Nc2nc(-c3ccco3)c(-c3ccco3)s2)cc1`, > 50 µM (inactive); for `COc1ccc(-c2cc(C(F)F)n3ncc(C(=O)Nc4ccc5c(c4)OCCO5)c3n2)cc1`, > 50 µM (inactive).
In the case of `O=C(Nc1ccc(-c2cn3ccsc3n2)cc1)c1ccc(Cl)c([N+](=O)[O-])c1`, the half-maximal inhibitory concentration (IC50) was 5.01 µM.
On to `COc1ccc(CCNC(=O)CCCn2c(=O)c3ccccc3n(CC(=O)OCc3ccccc3)c2=O)cc1OC`, for which the IC50 was 21.8 µM.
For `COc1ccc(NC(=O)C2CC(=O)Nc3cc(-c4ccccc4)nn32)cc1` (stereo not drawn) the value was 26.6 µM.
For `Cc1noc(-c2ccc(N3CCCC(C(=O)NCc4ccc(F)cc4)C3)nc2)n1` (stereo not drawn) the value was 32.2 µM; for `Cc1c(C)c2ccc(OCC(=O)NCc3ccncc3)c(C)c2oc1=O`, > 50 µM (inactive).
As to `COc1ccc(NC(=O)CC(=O)c2ccc([N+](=O)[O-])cc2)cc1S(=O)(=O)Nc1ccc(Br)cc1`, the IC50 was 28.7 µM.
For `COc1ccc(/C=C/C(=O)N2CCc3ccccc32)cc1S(=O)(=O)N1CCOCC1` the value was > 50 µM (inactive); for `O=C(Nc1ccccc1)c1nc(-c2cn(Cc3ccc(F)cc3)nn2)no1`, > 50 µM (inactive).
With `Cc1c(S(=O)(=O)NC2CCCCNC2=O)sc2ccc(Cl)cc12` (stereo not drawn), the IC50 was > 50 µM (inactive).
On to `CCn1c(COc2cccc(C(F)(F)F)c2)nnc1SCc1ccc(Cl)cc1`, for which the IC50 was 28.8 µM.
For `Cc1ccc(C(=O)Nc2ccc3c(c2)C(=O)N(C)c2ccccc2O3)cc1C` the value was > 50 µM (inactive); for `CCc1nnc(NC(=O)c2nnn(-c3ccccc3Cl)c2C)s1`, > 50 µM (inactive); for `COc1cc2c(c(OCC(=O)Nc3ccc4c(c3)OCCO4)c1)C(=O)O[C@@H](C)CCCC(=O)CCCCC2`, 48.5 µM.
Next, `COc1ccc(NC(=O)CSc2oc(-c3ccc(C)cc3)nc2S(=O)(=O)c2ccc(Br)cc2)c(OC)c1`: > 50 µM (inactive); `CNC(=O)c1cc2nc(N(C)C)n(-c3ccccc3)c2s1`: > 50 µM (inactive); `COc1ccc2ncc3c(-c4ccc(C)cc4)nn(-c4ccc(F)cc4)c3c2c1`: > 50 µM (inactive).
For `CN(C)C1CCN(C(=O)c2cc(-c3ccn(-c4ccccc4)n3)n3ccccc23)CC1` the value was > 50 µM (inactive); for `Cc1ccccc1C(=O)OCCN1C(=O)c2cccc3c(N4CCOCC4)ccc(c23)C1=O`, > 50 µM (inactive).
Regarding `Cc1nc2cc(C(=O)NCCC3=CCCCC3)ccc2n1-c1cccc(F)c1`, the IC50 is > 50 µM (inactive).
For `COc1ccc(CCNC(=O)COc2ncnc3oc(C)c(C)c23)cc1OC` the value was > 50 µM (inactive).
For `O=C(CCc1nnc2n(Cc3ccccc3Cl)c(=O)c3ccccc3n12)NCc1ccccn1` the value was > 50 µM (inactive); for `N#Cc1ccc(-c2ccc(OCC(=O)Nc3ccc4c(c3)OCO4)cc2)cc1`, > 50 µM (inactive); for `C/C1=C/C=C/[C@H](C)[C@H](O)[C@@H](C)[C@@H](O)[C@@H](C)[C@H](O)[C@H](C)[C@@H](O)[C@@H](C)/C=C(/C)C(=O)c2c(O)c(C)cc3c2C(=O)C=C(NC1=O)C3=O`, > 50 µM (inactive).
Next, `N#Cc1ccc(NC(=O)c2ccc(S(=O)(=O)N3CCCCC3)cc2)cc1`: > 50 µM (inactive).
On to `c1csc(CCN2CCc3nc4cccnc4cc3C2)c1`, for which the IC50 is > 50 µM (inactive).
For `CC(=O)c1ccc(NC(=O)CSc2nc(-c3ccccc3)nc3c2COC(C)(C)C3)cc1`, the IC50 is > 50 µM (inactive).
Next, `Cc1ccccc1C(=O)c1ccc(C(=O)NC2CCCCCC2)[nH]1`: 20.7 µM.
For `COc1ccccc1OCC(=O)Nc1ccc2c(c1)CCC(=O)N2Cc1ccccc1` the value was > 50 µM (inactive); for `c1coc(CNc2nc(Nc3cccc4ccccc34)nc3ccccc23)c1`, > 50 µM (inactive); for `Cn1c(C(=O)NCc2ccccn2)cc2c(=O)[nH]c3ccccc3c21`, > 50 µM (inactive).
For `CCOc1ccccc1C(=O)Nc1ccc2c(c1)Sc1ncccc1C(=O)N2C` the value was > 50 µM (inactive); for `COC(=O)c1c(C)[nH]c(C(=O)C(C)OC(=O)CCC2CCCC2)c1C` (stereo not drawn), > 50 µM (inactive).
Consider `O=C(Nc1cc(F)c2nc(N3CCCC3)ccc2c1)c1ccco1`, for which the IC50 was > 50 µM (inactive).
Consider `COc1cccc2c1C(=O)c1ccc3c(c1C2=O)C(=O)CC(C)(O)C3` (stereo not drawn), for which the IC50 was > 50 µM (inactive).
As for `COc1ccc(CN2CCCC23CCCN(C(=O)CCc2cccnc2)C3)cc1F` (stereo not drawn), the IC50 was 49.5 µM.
For `CC(Sc1n[nH]c2nc3ccccc3n12)C(=O)Nc1ccc2c(c1)OCCO2` (stereo not drawn) the value was > 50 µM (inactive).
Regarding `COc1ccc(NC(=O)c2nnc(C(=O)NCCN3CCCCCC3)s2)cc1`, the IC50 was 38.8 µM.
Consider `CCN(CC)c1nc(F)c2c(c1F)S(=O)(=O)CCN2Cc1cccnc1`, for which the IC50 is > 50 µM (inactive).
For `COc1cc(C)c(NC(=O)c2cc(-c3ccccc3)c(N3CCOCC3)s2)cc1OC` the value was > 50 µM (inactive); for `O=C(Cn1cncc(C(=O)NC2CCCC2)c1=O)Nc1cccc(F)c1`, 38.7 µM.
For `COc1ccc(NC(=O)CC(=O)c2ccc([N+](=O)[O-])cc2)cc1S(=O)(=O)Nc1ccc(Cl)cc1`, the 50% inhibitory concentration (IC50) is 35.5 µM.
For `CO/C=C/C(=O)c1cc2cnc3c(=N)cc(NC(C)=O)c([nH]1)c23` the value was > 50 µM (inactive); for `COc1c2nc3ccccc3oc-2cc(=O)c1OC`, > 50 µM (inactive).
Next, `Cc1ccc(Cn2nnc(C(=O)NCc3ccco3)c2-n2cccc2)cc1`: > 50 µM (inactive); `O=C(CN1CCCc2ccccc21)Nc1ccc(N2CCOCC2)cc1`: > 50 µM (inactive).
For the molecule `CC1(C)CC2CC(C)(CN2Cc2c(O)ccc3ccccc23)C1` (stereo not drawn), the IC50 is > 50 µM (inactive).
For `Cc1noc(C)c1COc1cccc(C(=O)Nc2cc(Cl)ccc2-n2cncn2)c1` the value was > 50 µM (inactive); for `O=C(NCc1cccnc1)C1CCN(c2cnc(N3CCCCCC3)nc2)CC1`, > 50 µM (inactive); for `O=C1NCCCC1Cc1ccc(-c2cccc(C(=O)N3CCc4ccccc4C3)c2)cc1` (stereo not drawn), > 50 µM (inactive).
Next, `NC(=O)c1nc(-c2cccnc2)nc2c1[nH]c(=O)n2-c1ccc2c(c1)OCO2`: > 50 µM (inactive).
For `COc1ccc(C)cc1NC(=O)C1CC(=O)Nc2nc3ccccc3n21` (stereo not drawn) the value was 40.2 µM; for `CC(C)Cn1cc(OC(=O)c2ccc(F)cc2)c2c1nc(-c1ccc(F)cc1)n1c3ccccc3nc21`, > 50 µM (inactive).
Consider `O=C(Nc1ccc2c(c1)OCCO2)C1CCC(Cn2cnc3ccccc3c2=O)CC1` (stereo not drawn), for which the IC50 was > 50 µM (inactive).

By IC50 is commonly meant the midpoint of a concentration-inhibition curve.

The record behind these values is PubChem BioAssay AID1645868 (Buhrlage Lab, Dana-Farber Cancer Institute and Novartis …, 2021).
